IC50 and Ratio IC50 data for 22 compounds are collected here from ChEMBL document CHEMBL4699654, “Computational Fragment-Based Design Facilitates Discovery of Potent and Selective Monoamine Oxidase-B (MAO-B) Inhibitor” (J Med Chem, 2020).

The target of experiment [1] is T1, Amine oxidase [flavin-containing] B (Homo sapiens, UniProt P27338).
T1 sequence (P27338 whole entry): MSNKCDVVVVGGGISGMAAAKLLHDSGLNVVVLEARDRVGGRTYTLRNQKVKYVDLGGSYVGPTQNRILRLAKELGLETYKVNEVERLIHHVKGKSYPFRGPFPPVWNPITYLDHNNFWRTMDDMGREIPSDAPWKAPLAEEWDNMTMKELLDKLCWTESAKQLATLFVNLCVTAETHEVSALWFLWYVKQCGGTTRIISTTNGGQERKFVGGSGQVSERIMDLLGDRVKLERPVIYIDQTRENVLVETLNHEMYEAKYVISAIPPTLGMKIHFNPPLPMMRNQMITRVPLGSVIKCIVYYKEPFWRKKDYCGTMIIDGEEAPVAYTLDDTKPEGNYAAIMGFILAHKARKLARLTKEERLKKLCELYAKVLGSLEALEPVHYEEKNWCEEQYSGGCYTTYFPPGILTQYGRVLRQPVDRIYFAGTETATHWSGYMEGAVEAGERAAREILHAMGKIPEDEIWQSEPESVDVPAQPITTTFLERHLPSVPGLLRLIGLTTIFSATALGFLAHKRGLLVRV
Kind of experiment: Inhibition of recombinant human MAO-B expressed in Sf9 cells using benzylamine as substrate preincubated for 15 mins followed by substrate addition for 60 mins by Luminex assay. In kind it is cell-based.

The species entered for the next experiment is Homo sapiens. In words: Selectivity index, ratio of IC50 for recombinant human MAO-A to IC50 for recombinant human MAO-B.
Experiment [2] addresses T2, Amine oxidase [flavin-containing] A (Homo sapiens, UniProt P21397).
T2 sequence (P21397 whole entry): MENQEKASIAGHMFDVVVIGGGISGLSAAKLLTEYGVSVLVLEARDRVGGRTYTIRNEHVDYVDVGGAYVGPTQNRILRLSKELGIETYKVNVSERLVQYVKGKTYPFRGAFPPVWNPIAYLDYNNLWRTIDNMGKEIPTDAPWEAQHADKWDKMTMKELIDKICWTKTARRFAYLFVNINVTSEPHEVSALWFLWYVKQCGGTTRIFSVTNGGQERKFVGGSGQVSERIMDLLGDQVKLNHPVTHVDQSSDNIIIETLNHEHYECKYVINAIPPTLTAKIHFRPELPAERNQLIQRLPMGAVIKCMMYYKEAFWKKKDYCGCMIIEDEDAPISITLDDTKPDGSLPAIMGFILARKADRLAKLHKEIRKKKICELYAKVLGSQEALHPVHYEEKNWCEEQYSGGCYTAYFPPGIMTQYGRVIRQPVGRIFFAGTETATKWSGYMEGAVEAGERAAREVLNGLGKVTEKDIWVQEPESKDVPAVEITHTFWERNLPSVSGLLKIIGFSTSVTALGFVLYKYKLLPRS
In words: Inhibition of recombinant human MAO-A expressed in Sf9 cells using p-tyramine as substrate preincubated for 15 mins followed by substrate addition for 60 mins by […] assay.

Where only a bound is given, the exact number is not on record here.

Take `C[C@H](NCc1ccc(OCc2cccc(F)c2)cc1F)C(N)=O`: the half-maximal inhibitory concentration (IC50) is 61 nM in experiment [1] and over 10000 nM in experiment [2]. In addition, the Ratio IC50 in the experiment filed under Homo sapiens was over 163.
For the compound `CC1(C)C[C@@H](C(N)=O)N(Cc2ccc(OCc3cccc(F)c3)cc2F)C1`, the IC50 in experiment [1] amounted to 6350 nM.
For `NC(=O)[C@@H]1CCN1Cc1ccc(OCc2cccc(F)c2)cc1F`, the values for the half-maximal inhibitory concentration (IC50) in experiment [1] and in experiment [2] were 26 nM and 18600 nM, respectively. Moreover, in the experiment filed under Homo sapiens, the Ratio IC50 came to 715.
On the same counts, the results for `Cc1cc(OCc2cccc(F)c2)ccc1CN1CC[C@H]1C(N)=O` are 258 nM, 8650 nM and 34.
Take `C[C@H](NCc1ccc(OCc2cccc(F)c2)cc1Cl)C(N)=O`: the IC50 was found to be 28 nM in experiment [1] and 12000 nM in experiment [2]. Besides, in the experiment listed under Homo sapiens, the Ratio IC50 is 427.
On the same counts, the results for `CC1(C)C[C@@H](C(N)=O)N(Cc2ccc(OCc3cccc(F)c3)cc2)C1` are 1420 nM, 17500 nM and 12.
Regarding `NC(=O)[C@@H]1COCCN1Cc1ccc(OCc2cccc(F)c2)cc1`, the IC50 in experiment [1] was determined as 5410 nM.
On to `NC(=O)C1CCN1Cc1ccc(OCc2cccc(F)c2)cc1` (racemic), for which the results for the half-inhibitory concentration (IC50) in experiment [1] and in experiment [2] were 46 nM and 18000 nM, respectively. For the same compound, in the experiment listed under Homo sapiens, the Ratio IC50 was found to be 391.
On the same counts, the results for `NC(=O)[C@@H]1CCN1Cc1ccc(OCc2cccc(F)c2)cc1Cl` are 35 nM, 2130 nM and 61.
On the same counts, the results for `NC(=O)[C@@H]1COCCN1Cc1ccc(OCc2cccc(F)c2)cc1F` are 2870 nM, 57600 nM and 20.
`C#CCN(Cc1ccc(OCc2cccc(F)c2)cc1C)[C@@H](C)C(N)=O`: the half-inhibitory concentration (IC50) stood at 320 nM in experiment [1] and 6400 nM in experiment [2]. Moreover, in the experiment filed under Homo sapiens, the Ratio IC50 amounted to 20.
On the same counts, the results for `NC(=O)C1CN(Cc2ccc(OCc3cccc(F)c3)cc2)C1` are 1420 nM, over 10000 nM and over 7.
On the same counts, the results for `Cc1cc(OCc2cccc(F)c2)ccc1CN[C@@H](C)C(N)=O` are 69 nM, over 10000 nM and over 140.
For `C#CCN(C)C(=O)[C@H](C)NCc1ccc(OCc2cccc(F)c2)cc1`, the IC50 in experiment [1] is over 10000 nM.
The same measure, in the same setting: the value for `C[C@H](NCc1ccc(OCc2cccc(F)c2)cc1)C(=O)NCCN1CCOCC1` was over 10000 nM.
As to `NC(=O)[C@@H]1CCN1Cc1ccc(OCc2cccc(F)c2)cc1`, the values for the half-maximal inhibitory concentration (IC50) in experiment [1] and in experiment [2] were 21 nM and 26800 nM, respectively. In the experiment listed under Homo sapiens, the Ratio IC50 was found to be 1280.
For the compound `NC(=O)[C@@H]1CCCN1Cc1ccc(OCc2cccc(F)c2)cc1`, the IC50 in experiment [1] was 204 nM; in experiment [2] it was 34200 nM. Moreover, the Ratio IC50 in the experiment filed under Homo sapiens came to 168.
On the same counts, the results for `NC(=O)[C@@H]1CC(F)(F)CN1Cc1ccc(OCc2cccc(F)c2)cc1` are 1070 nM, 14500 nM and 14.
On the same counts, the results for `C#CCN(Cc1ccc(OCc2cccc(F)c2)cc1Cl)[C@@H](C)C(N)=O` are 68 nM, 5590 nM and 82.
For `C#CCN(Cc1ccc(OCc2cccc(F)c2)cc1F)[C@@H](C)C(N)=O`, the half-inhibitory concentration (IC50) in experiment [1] turned out to be 93 nM; in experiment [2] it was 8710 nM. Also, in the experiment listed under Homo sapiens, the Ratio IC50 worked out at 94.
As to `C#CCN(Cc1ccc(OCc2cccc(F)c2)cc1)[C@@H](C)C(N)=O`, the half-maximal inhibitory concentration (IC50) was 530 nM in experiment [1] and 7790 nM in experiment [2]. Further, in the experiment filed under Homo sapiens, the Ratio IC50 came out at 15.
On the same counts, the results for `C[C@H](NCc1ccc(OCc2cccc(F)c2)cc1C1CC1)C(N)=O` are 1660 nM, 75200 nM and 45.
